Values quoted from earlier work as cited in US20090099252A1, “NOVEL L[…] AS THERAPEUTIC AGENTS” (priority 2007, published 2009).

System: multi-drug resistant cell line SKVLB-1
Settings: background statement

C=C1C[C@H](C)C[C@@H]2CC=C[C@@H](C/C=C\C(=O)O[C@H]([C@@H](O)/C=C/[C@@H]3CC(C)=CCO3)C[C@@H]3O[C@H]3[C@@H](O)C1)O2 [Laulimalide, laulimalide]
IC50: 1.2 µM
